Results on two compounds are retold here after patent US11471462B2, “Compositions and methods for detecting and treating diabetes” (THE BROAD INSTITUTE, INC., priority 2016, dated 2022).

Residues, ends and D or L forms follow the SMILES beside them. *: point of attachment. Cbz = O=C(OCc1ccccc1)*

Format in all cases: cell-based, human
In assay [1] the test system is SLC16A11 protein. The assay is described as follows: SLC16A11 protein levels in HuH7 cells cultured with metabolites (Western blot). As to conditions: HuH7 cells stably expressing SLC16A11, cultured with metabolite 24 hr. The text has this:
FIG. 19 provides Western blots and experimental protocol steps involved in the analysis of SLC16A11 protein levels after culture of HuH7 cells stably expressing SLC16A11 in the presence or absence of various metabolites, namely, pyruvate, lactate and glucose. Cell lysates were used in the analysis. […] Tubulin is shown as a reference. As shown, glucose, pyruvate and […] are metabolites that affect SLC16A11 protein levels.
FIG. 20 provides Western blots of V5-tagged SLC16A11 (WT) and the V5-tagged SLC16A11 variant, T2D risk, stably expressed in HuH7 cells that had been glucose-starved for the times indicated. Cell lysates were used in the analysis. […] A similar finding is observed in the left blot of FIG. 19, above, in which no SLC16A11 protein was detected in cell lysates cultured for 24 hrs without glucose compared with detectable levels of SLC16A11 protein found in lysates from cultures containing 1-5 g/L of glucose.
FIG. 21 provides Western blots of V5-tagged SLC16A11 (WT) and the V5-tagged SLC16A11 variant, T2D risk, stably expressed in HuH7 cells that been cultured for 24 hours with or without glucose and with either low (L) or high (H) concentrations of pyruvate and lactate as indicated. Cell lysates were used in the analysis. […]

In another assay the test system is SLC16A11. The assay is described as follows: Metabolic effectors on SLC16A11 transcript levels in SNU761 cells. As to conditions: 24 hours, low and high concentrations. Here is the method:
(§1) FIG. 22 provides bar graphs showing the effects of low and high concentrations of metabolic effectors (oleic acid (OA), insulin and glucagon) on expression levels of SLC16A11 and SLC16A13 transcripts in SNU761 cells cultured for 24 hours in the presence of low/high concentrations of OA (0.3 mM/1.5 mM); insulin (100 nM/500 nM); or glucagon (100 nM/500 nM). Relative transcipt levels of SLC16A11 and SLC16A13 are shown, with 2-FBS (2% Fetal Bovine Serum) used as control.
(§2) FIG. 23 provides bar graphs showing the effects of low and high concentrations of pyruvate or lactate on expression levels of SLC16A11 and SLC16A13 transcripts in SNU761 cells cultured for 24 hours in the presence of 2 mM pyruvate (low), 10 mM pyruvate (high), 20 mM lactate (low), or 100 mM lactate (high). Relative transcipt levels of SLC16A11 and SLC16A13 are shown, compared with transcript levels in cell cultured in increasing concentrations of glucose.
(§3) To assess whether metabolic effectors regulated SLC16A11 and SLC16A13 transcript levels, endogenous transcripts in SNU761 cells (derived from a human hepatocellular carcinoma) were examined following exposure of the cells to different metabolic perturbations. SNU761 cells were cultured in the presence of various metabolic effectors for 24 hours after which time cell lysates were collected and the relative endogenous expression levels of SLC16A11 and SLC16A13 transcripts were assessed. The metabolic effectors included in the cell cultures included oleic acid (OA) at a low concentration (0.3 mM) or a high concentration (1.5 mM); insulin at a low concentration (100 nM) or a high concentration (500 nM) and glucagon at a low concentration (100 nM) and a high concentration (500 nM). Cells cultured in 2-FBS were used as a control. […] (FIG. 22). Similarly, SNU761 cells were cultured in the presence or absence of low or high concentrations of pyruvate or lactate in the culture medium for 24 hours after which time cell lysates were analyzed. In the cultures, low (L) pyruvate concentration was 2 mM; high (H) pyruvate concentration was 10 mM, and low lactate concentration was 20 mM, while high lactate concentration was 100 mM. […] (FIG. 23).

The subject of another assay is SLC16A13. The assay is described as follows: Metabolic effectors on SLC16A13 transcript levels in SNU761 cells. As to conditions: 24 hours, high concentration (10 mM pyruvate, 100 mM lactate). Here is the method: as §1, §2, §3
For assay [2], the system named is SLC16A11 protein. The assay is described as follows: Proteasomal degradation: SLC16A11 protein levels by Western blot. The conditions noted are these: HuH7 cells stably expressing SLC16A11^REF-V5; 5 μM for 3 hrs. Here is the method:
FIG. 5D (top panel) provides two Western blots showing that SLC16A11 is degraded by the proteasome and has a short half-life relative to other SLC16 family members. […] HEK293T cells expressing V5-tagged SLC16A11^REF, SLC16A13, or SLC16A1 were treated with cycloheximide (10 μg/mL) for the indicated times. Note that the SLC16A11, SLC16A13, and SLC16A1 images are from different exposure times. […] HuH7 cells stably expressing SLC16A11^REF-V5 were treated with MG132 (5 μM) or cyclohexamide for 3 hrs. FIG. 5D (bottom panel) provides Western blot showing SLC16A11 and BSG co-immunoprecipitations. (5D-A-5D-C): Co-immunoprecipitation of SLC16A11 and BSG confirms the reduced interaction between SLC16A11^T2D and BSG in HEK293T cells. BSG is glycosylated and runs as multiple bands by reducing SDS-PAGE. Molecular weight markers (kDa) are indicated. (5D-A): Interaction of BSG-V5 with immunoprecipitated SLC16A11-HA. (5D B): Interaction of SLC16A11-HA with immunoprecipitated BSG-V5. (C) Interaction of endogenous BSG with immunoprecipitated SLC16A11-HA. […]
Total protein concentration was measured using a BCA assay (Thermo Fisher Scientific) and equal quantities of protein were loaded on each gel. […] Signals were detected with HRP-conjugated secondary antibodies, followed by chemiluminescent detection and autoradiography. […]

Consider `CC(O)C(=O)O` (stereo not shown) [lactate], for which the SLC16A11 protein levels entry in the assay on SLC16A11 protein [1] is “alter SLC16A11 protein levels”. The SLC16A11 transcript levels entry in the assay with SLC16A11 is “alter transcripts at 17p13”. The “relative transcript levels of SLC16A13” value with SLC16A13 is “increased”.

Consider `CC(C)C[C@@H](C=O)NC(=O)[C@H](CC(C)C)NC(=O)[C@H](CC(C)C)NC(=O)OCc1ccccc1` [MG132] (Cbz-Leu-Leu-Leu-aldehyde), for which, in the assay on SLC16A11 protein [2], the SLC16A11 protein levels entry is reported as “increased”.
